ChEMBL document CHEMBL4229365, “Synthesis of novel ring-contracted artemisinin dimers with potent anticancer activities” (Eur J Med Chem, 2018)

What was measured:
[1] = test system: SH-SY5Y; assay: Antiproliferative activity against human SH-SY5Y cells after 72 hrs by CCK-8 assay; type: functional, cell-based
[2] = test system: A-375; assay: Antiproliferative activity against human A375 cells after 72 hrs by CCK-8 assay; type: functional, cell-based; conditions: A-375, 72 h
[3] = test system: PC-12; assay: Antiproliferative activity against rat PC12 cells after 72 hrs by CCK-8 assay; type: functional, cell-based; conditions: PC-12, 72 h
[4] = test system: L02; assay: Antiproliferative activity against human L02 cells after 72 hrs by CCK-8 assay; type: cell-based; conditions: L02, 72 h
[5] = test system: HCT-116; assay: Antiproliferative activity against human HCT116 cells after 72 hrs by CCK-8 assay; type: functional, cell-based; conditions: HCT-116, 72 h
[6] = test system: A549; assay: Antiproliferative activity against human A549 cells after 72 hrs by CCK-8 assay; type: functional, cell-based; conditions: A549, 72 h

| SMILES | IC50 [1] | IC50 [2] | IC50 [3] | IC50 [4] | IC50 [5] | IC50 [6] |
| --- | --- | --- | --- | --- | --- | --- |
| C[C@@H]1CC[C@@H]2[C@]34OO[C@](C)(CC[C@@H]13)O[C@H]4O[C@]2(C)C(=O)OCCCCOC(=O)[C@@]1(C)O[C@@H]2O[C@@]3(C)CC[C@H]4[C@H](C)CC[C@@H]1[C@@]24OO3 | 6.26 µM | 13.2 µM | 8.52 µM | 16.2 µM | 7.65 µM | 6.56 µM |
| C[C@@H]1CC[C@@H]2[C@]34OO[C@](C)(CC[C@@H]13)O[C@H]4O[C@]2(C)C(=O)OCCCCCCCOC(=O)[C@@]1(C)O[C@@H]2O[C@@]3(C)CC[C@H]4[C@H](C)CC[C@@H]1[C@@]24OO3 | 7.29 µM | 7.86 µM | 8.17 µM | 16.6 µM | 11.6 µM | 7.71 µM |
| COc1cccc2c1C(=O)c1c(O)c3c(c(O)c1C2=O)C[C@@](O)(C(=O)CO)C[C@@H]3O[C@H]1C[C@H](N)[C@H](O)[C@H](C)O1 [DOXORUBICIN] | 0.35 µM | 0.37 µM | 0.52 µM | 0.85 µM | 0.79 µM | 0.43 µM |
| C[C@@H]1CC[C@@H]2[C@]34OO[C@](C)(CC[C@@H]13)O[C@H]4O[C@]2(C)C(=O)NCCCCCCCCNC(=O)[C@@]1(C)O[C@@H]2O[C@@]3(C)CC[C@H]4[C@H](C)CC[C@@H]1[C@@]24OO3 | > 50 µM | 19.4 µM | 11.2 µM | > 50 µM | > 50 µM | 18.9 µM |
| C[C@@H]1CC[C@H]2[C@@H](C)C(=O)O[C@@H]3O[C@@]4(C)CC[C@@H]1[C@]32OO4 [ARTEMISININ] | > 50 µM | > 50 µM | > 50 µM | > 50 µM | > 50 µM | > 50 µM |
| C[C@@H]1CC[C@@H]2[C@]34OO[C@](C)(CC[C@@H]13)O[C@H]4O[C@]2(C)C(=O)OCCCCCCCCCCOC(=O)[C@@]1(C)O[C@@H]2O[C@@]3(C)CC[C@H]4[C@H](C)CC[C@@H]1[C@@]24OO3 | > 50 µM | 20.8 µM | > 50 µM | > 50 µM | > 50 µM | 29 µM |
| C[C@@H]1CC[C@@H]2[C@]34OO[C@](C)(CC[C@@H]13)O[C@H]4O[C@]2(C)C(=O)O | > 50 µM | > 50 µM | 37.3 µM | > 50 µM | > 50 µM | > 50 µM |
| C[C@@H]1CC[C@@H]2[C@]34OO[C@](C)(CC[C@@H]13)O[C@H]4O[C@]2(C)C(=O)OCc1ccccc1COC(=O)[C@@]1(C)O[C@@H]2O[C@@]3(C)CC[C@H]4[C@H](C)CC[C@@H]1[C@@]24OO3 | 47.5 µM | > 50 µM | 8.73 µM | 5 µM | 15.1 µM | 21.7 µM |
| C[C@@H]1CC[C@@H]2[C@]34OO[C@](C)(CC[C@@H]13)O[C@H]4O[C@]2(C)C(=O)NCCCCNC(=O)[C@@]1(C)O[C@@H]2O[C@@]3(C)CC[C@H]4[C@H](C)CC[C@@H]1[C@@]24OO3 | > 50 µM | > 50 µM | 25.4 µM | – | > 50 µM | > 50 µM |
| C[C@@H]1CC[C@@H]2[C@]34OO[C@](C)(CC[C@@H]13)O[C@H]4O[C@]2(C)C(=O)Nc1ccc(NC(=O)[C@@]2(C)O[C@@H]3O[C@@]4(C)CC[C@H]5[C@H](C)CC[C@@H]2[C@@]35OO4)cc1 | > 50 µM | > 50 µM | > 50 µM | – | > 50 µM | > 50 µM |
| C[C@@H]1CC[C@@H]2[C@]34OO[C@](C)(CC[C@@H]13)O[C@H]4O[C@]2(C)/C=C\COP(=O)(OC/C=C/[C@@]1(C)O[C@@H]2O[C@@]3(C)CC[C@H]4[C@H](C)CC[C@@H]1[C@@]24OO3)Oc1ccccc1 | 5.79 µM | 8.14 µM | 7.22 µM | 31.6 µM | 9.1 µM | 10.7 µM |
| CCOP(=O)(OC/C=C\[C@@]1(C)O[C@@H]2O[C@@]3(C)CC[C@H]4[C@H](C)CC[C@@H]1[C@@]24OO3)OC/C=C/[C@@]1(C)O[C@@H]2O[C@@]3(C)CC[C@H]4[C@H](C)CC[C@@H]1[C@@]24OO3 | 6.38 µM | 12.4 µM | 5.26 µM | 18.7 µM | 10.7 µM | 11.4 µM |
| C[C@@H]1CC[C@@H]2[C@]34OO[C@](C)(CC[C@@H]13)O[C@H]4O[C@]2(C)CO | > 50 µM | > 50 µM | > 50 µM | > 50 µM | > 50 µM | > 50 µM |
| C[C@@H]1CC[C@@H]2[C@]34OO[C@](C)(CC[C@@H]13)O[C@H]4O[C@]2(C)C(=O)NCCCCCCNC(=O)[C@@]1(C)O[C@@H]2O[C@@]3(C)CC[C@H]4[C@H](C)CC[C@@H]1[C@@]24OO3 | > 50 µM | 35.3 µM | > 50 µM | – | > 50 µM | > 50 µM |
| C[C@@H]1CC[C@@H]2[C@]34OO[C@](C)(CC[C@@H]13)O[C@H]4O[C@]2(C)C(=O)OCC(C)(C)COC(=O)[C@@]1(C)O[C@@H]2O[C@@]3(C)CC[C@H]4[C@H](C)CC[C@@H]1[C@@]24OO3 | > 50 µM | > 50 µM | > 50 µM | – | > 50 µM | > 50 µM |
| C[C@@H]1CC[C@@H]2[C@]34OO[C@](C)(CC[C@@H]13)O[C@H]4O[C@]2(C)C(=O)Nc1cccc(NC(=O)[C@@]2(C)O[C@@H]3O[C@@]4(C)CC[C@H]5[C@H](C)CC[C@@H]2[C@@]35OO4)c1 | > 50 µM | > 50 µM | > 50 µM | – | > 50 µM | > 50 µM |
| C[C@@H]1CC[C@@H]2[C@]34OO[C@](C)(CC[C@@H]13)O[C@H]4O[C@]2(C)C(=O)OCCCCCCCCCCCCOC(=O)[C@@]1(C)O[C@@H]2O[C@@]3(C)CC[C@H]4[C@H](C)CC[C@@H]1[C@@]24OO3 | > 50 µM | > 50 µM | > 50 µM | – | > 50 µM | > 50 µM |
| CCOP(=O)(OC[C@@]1(C)O[C@@H]2O[C@@]3(C)CC[C@H]4[C@H](C)CC[C@@H]1[C@@]24OO3)OC[C@@]1(C)O[C@@H]2O[C@@]3(C)CC[C@H]4[C@H](C)CC[C@@H]1[C@@]24OO3 | – | 9.62 µM | 5.46 µM | 33.9 µM | 14.8 µM | 15.4 µM |
| C[C@@H]1CC[C@@H]2[C@]34OO[C@](C)(CC[C@@H]13)O[C@H]4O[C@]2(C)C(=O)OCCOC(=O)[C@@]1(C)O[C@@H]2O[C@@]3(C)CC[C@H]4[C@H](C)CC[C@@H]1[C@@]24OO3 | > 50 µM | > 50 µM | > 50 µM | – | > 50 µM | > 50 µM |
| C[C@@H]1CC[C@@H]2[C@]34OO[C@](C)(CC[C@@H]13)O[C@H]4O[C@]2(C)C(=O)OCCCCCOC(=O)[C@@]1(C)O[C@@H]2O[C@@]3(C)CC[C@H]4[C@H](C)CC[C@@H]1[C@@]24OO3 | 9.26 µM | > 50 µM | > 50 µM | – | > 50 µM | 12 µM |
